# Assay results from publication PMC6505227, “Exploration of carbohydrate binding behavior and anti-proliferative activities of Arisaema tortuosum lectin” (BMC Molecular Biology, 2019).
# T1: Arisaema tortuosum lectin (ATL) (Arisaema tortuosum, UniProt A0A1L6CAS7)
# T1 construct: 257-residue precursor, predicted signal peptide 1-23, two domains (DOM1 N26-P132, DOM2 N146-A254) separated by processing; 52 kDa heterotetramer 2 x (A + B)
# T1 sequence (A0A1L6CAS7 24-257): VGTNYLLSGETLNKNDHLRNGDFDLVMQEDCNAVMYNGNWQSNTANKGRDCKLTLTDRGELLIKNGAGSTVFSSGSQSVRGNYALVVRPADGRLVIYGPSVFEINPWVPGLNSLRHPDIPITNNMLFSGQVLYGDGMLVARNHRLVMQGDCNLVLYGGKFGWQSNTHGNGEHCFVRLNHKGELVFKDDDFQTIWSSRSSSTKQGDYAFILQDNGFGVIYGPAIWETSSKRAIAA
# Target: Arisaema tortuosum lectin (Arisaema tortuosum)
# Test: ITC; MicroCal iTC200, 18 injections, fitted with a one site model; ATL dialysed against PBS; set-up as described in ref. 21; temperature not stated
# Settings: not given
row,Molecule,Ka
1,"asialofetuin (natural protein, complex glycoprotein (asialofetuin)) IPLDPVAGYKEPACDDPDTEQAALAAVDYINKHLPRGYKHTLNQIDSVKVWPRRPTGEVYDIEIDTLETTCHVLDPTPLANCSVRQQTQHAVEGDCDIHVLKQDGQFSVLFTKCDSSPDSAEDVRKLCPDCPLLAPLNDSRVVHAVEVALATFNAESNGSYLQLVEISRAQFVPLPVSVSVEFAVAATDCIAKEVVDPTKCNLLAEKQYGFCKGSVIQKALGGEDVRVTCTLFQTQPVIPQPQPDGAEAEAPSAVPDAAGPTPSAAGPPVASVVVGPSVVAVPLPLHRAHYDLRHTFSGVASVESSSGEAFHVGKTPIVGQPSIPGGPVRLCPGRIRYFKI",116000 M⁻¹

# Target: Arisaema tortuosum lectin (Arisaema tortuosum)
# Test: ITC; MicroCal iTC200, 18 injections, data fitted to a one site model; ATL dialysed in PBS; which partner was in the syringe is not stated
# Settings: not given
row,Molecule,stoichiometry N
1,"asialofetuin (natural protein, complex glycoprotein (asialofetuin)) IPLDPVAGYKEPACDDPDTEQAALAAVDYINKHLPRGYKHTLNQIDSVKVWPRRPTGEVYDIEIDTLETTCHVLDPTPLANCSVRQQTQHAVEGDCDIHVLKQDGQFSVLFTKCDSSPDSAEDVRKLCPDCPLLAPLNDSRVVHAVEVALATFNAESNGSYLQLVEISRAQFVPLPVSVSVEFAVAATDCIAKEVVDPTKCNLLAEKQYGFCKGSVIQKALGGEDVRVTCTLFQTQPVIPQPQPDGAEAEAPSAVPDAAGPTPSAAGPPVASVVVGPSVVAVPLPLHRAHYDLRHTFSGVASVESSSGEAFHVGKTPIVGQPSIPGGPVRLCPGRIRYFKI",0.32

# Target: T1, Arisaema tortuosum lectin (ATL)
# Test: CFG glycan microarray v5.[…], biotinylated lectin, fluorescence
# Assay type: binding
# Settings: glycan immobilised via spacer; mean over 10, 1.0 and 0.1 µg/ml lectin
row,Molecule,Avg. rank^a
1,Fuca1-2Galb1-4 GlcNAcb1-2Mana1-6(Fuca1-2Galb1-4GlcNAcb1-2(Fuca1-2Galb1-4GlcNAcb1-4)Mana1-3)Manb1-4GlcNAcb1-4GlcNAcb-Sp12 [compound 446],25.9 average rank (from RFU)
2,Fuca1-2Galb1-4(Fuca1-3)GlcNAcb1-2Mana1-6(Fuca1-2Galb1-4(Fuca1-3)GlcNAcb1-2Mana1-3)Manb1-4GlcNAcb1-4(Fuca1-6)GlcNAcb-Sp24 [compound 473],20.0 average rank (from RFU)
3,Gala1-4Galb1-3GlcNAcb1-2Mana1-6(Gala1-4Galb1-3GlcNAcb1-2Mana1-3)Manb1-4GlcNAcb1-4GlcNAcb-Sp19 [compound 404],70.8 average rank (from RFU)
4,Galb1-3GlcNAcb1-2Mana1-6(Galb1-3GlcNAcb1-2Mana1-3)Manb1-4GlcNAcb1-4(Fuca1-6)GlcNAcb-Sp22 [compound 355],24.1 average rank (from RFU)
5,Galb1-3GlcNAcb1-2Mana1-6(Galb1-3GlcNAcb1-2Mana1-3)Manb1-4GlcNAcb1-4GlcNAcb-Sp19 [compound 325],57.7 average rank (from RFU)
6,Galb1-4GlcNAcb1-2Mana1-6(Galb1-4GlcNAcb1-4(Galb1-4GlcNAcb1-2)Mana1-3)Manb1-4GlcNAcb1-4GlcNAc-Sp21 [compound 370],24.5 average rank (from RFU)
7,Galb1-4GlcNAcb1-2Mana1-6(GlcNAcb1-2Mana1-3)Manb1-4GlcNAcb1-4GlcNAc-Sp12 [compound 399],13.8 average rank (from RFU)
8,Galb1-4GlcNAcb1-2Mana1-6(Mana1-3)Manb1-4GlcNAcb1-4GlcNAcb-Sp12 [compound 365],59.9 average rank (from RFU)
9,Galb1-4GlcNAcb1-3Galb1-4GlcNAcb1-2Mana1-6(Galb1-4GlcNAcb1-3Galb1-4GlcNAcb1-2Mana1-3)Manb1-4GlcNAcb1-4(Fuca1-6)GlcNAcb-Sp24 [compound 576],20.9 average rank (from RFU)
10,Galb1-4GlcNAcb1-6(Galb1-4GlcNAcb1-2)Mana1-6(Galb1-4GlcNAcb1-4(Galb1-4GlcNAcb1-2)Mana1-3)Manb1-4GlcNAcb1-4GlcNAcb-Sp21 [compound 388],51.9 average rank (from RFU)
11,GlcNAcb1-2Mana1-6(GlcNAcb1-2Mana1-3)Manb1-4GlcNAcb1-4GlcNAcb-Sp13 [compound 53],48.0 average rank (from RFU)
12,GlcNAcb1-2Mana1-6(GlcNAcb1-4(GlcNAcb1-2)Mana1-3)Manb1-4GlcNAcb1-4GlcNAc-Sp21 [compound 389],85.5 average rank (from RFU)
13,GlcNAcb1-3Galb1-4GlcNAcb1-2Mana1-6(GlcNAcb1-3Galb1-4GlcNAcb1-2Mana1-3)Manb1-4GlcNAcb1-4(Fuca1-6)GlcNAcb-Sp24 [compound 575],20.6 average rank (from RFU)
14,Mana1-2Mana1-6(Mana1-3)Mana1-6(Mana1-2Mana1-2Mana1-3)Manb1-4GlcNAcb1-4GlcNAcb-Sp12 [compound 212],35.7 average rank (from RFU)
15,Mana1-6(Galb1-4GlcNAcb1-2Mana1-3)Manb1-4GlcNAcb1-4GlcNAcb-Sp12 [compound 352],15.5 average rank (from RFU)
16,Mana1-6(Mana1-2Mana1-3)Mana1-6(Mana1-2Mana1-3)Manb1-4GlcNAcb1-4GlcNAcb-Sp12 [compound 211],30.4 average rank (from RFU)
17,Mana1-6(Mana1-3)Mana1-6(Mana1-2Mana1-3)Manb1-4GlcNAcb1-4GlcNAcb-Sp12 [compound 216],37.3 average rank (from RFU)
18,Mana1-6(Mana1-3)Mana1-6(Mana1-3)Manb1-4GlcNAcb1-4GlcNAcb-Sp12 [compound 217],67.9 average rank (from RFU)
19,Mana1-6(Mana1-3)Manb1-4GlcNAcb1-4(Fuca1-6)GlcNAcb-Sp19 [compound 485],62.5 average rank (from RFU)
20,Mana1-6(Mana1-3)Manb1-4GlcNAcb1-4GlcNAcb-Sp13 [compound 51],87.6 average rank (from RFU)
